Results taken from US10266489B2, “Pyrrolic amide compound and preparation method and application thereof” (HitGen LTD, priority 2014, dated 2019).

Legend:
Li7 cells = experiment: Determination of cell growth inhibition, CCK-8, Li-7; format: cell-based; conditions: Li-7 hepatoma cells, 72 hours, highest measured IC50 of single or multiple operations
From the text: (§1) Test example 2 Cell determination-determination of cell growth inhibition Materials and reagents HepG2 cell strains, Hep3B cell strains, Huh7 cell strains and Li7 cell strains are purchased from Shanghai Institutes for Biological Sciences of Chinese Academy of Sciences; DMEM high glucose media and MEM media are purchased from Hyclone; fetal calf serum is purchased from Gibco Company; trypsin is purchased from Invitrogen Shanghai; CCK-8 kits are purchased from Beyotime Institute of Biotechnology; and other consumables such as cell-culture dishes and the like are purchased from Corning China. […]
(§2) comprising the steps: digesting HepG2 cells, Hep3B Huh7 cells and Li7 cells in logarithmic phases by using the trypsin; after counting the cells by taking uniform cell suspension, adjusting cell density to 1500 cells/pore by using a culture medium containing 10% of serum, and re-inoculating into a 96-pore cell culture plate, wherein the culture volume is 200 μL; incubating in a 5% CO2 incubator at a temperature of 37° C.; and culturing for 24 hours for experiments. […]
(§3) comprising the steps: taking the cells cultured for 24 hours from the incubator, sucking culture solution in the pore plate, adding 200 μL of compound solution prepared by using a culture medium containing 10% of the fetal calf serum into each pore, enabling five pores of each concentration to be parallel, setting DMSO at negative control, and incubating in the 5% CO2 incubator at a temperature of 37° C. for 72 hours for performing CCK-8 detection. […]
(§4) comprising the steps: taking a serum-free medium and a CCK-8 solution, and preparing a CCK-8 working solution according to a ratio of 10:1 (the process needs to be protected from light); taking the cells cultured for 72 hours from the incubator, sucking culture solution in the pore plate, adding 120 μL of the CCK-8 working solution into each pore, adding 120 μL of the CCK-8 working solution into a cell-free pore plate to serve as blank control, and incubating in the 5% CO2 incubator at a temperature of 37° C. for one hour (the process needs to be protected from light ); and […]
(§5) taking the pore plate from the incubator, sucking 100 μL of solution from each pore into a new 96-pore plate, and reading absorbancy at 450 nm (the process needs to he protected from light).
(§6) Tx: absorbancy measured in CCK-8 within 72 hours after compound effect
(§7) C: absorbancy measured m CCK-8 within 72 hours after culturing in negative control pores B: absorbancy measured CCK-8 in blank control pores
(§8) The compounds 1-19 prepared in the embodiments are operated in the above determination, and test results are shown in Table 3, wherein the highest measured IC50 values of the various compounds during single or multiple operations are classified as specified, as shown in Table 3: […]

Huh7 cells = experiment: Determination of cell growth inhibition, CCK-8, Huh-7; format: cell-based; conditions: Homo sapiens, Huh-7 hepatoma cells, 72 hours, highest measured IC50 of single or multiple operations
From the text: as §1, §2, §3, §4, §5, §6, §7, §8

HepG2 cells = experiment: Determination of cell growth inhibition, CCK-8, HepG2; format: cell-based; conditions: Homo sapiens, HepG2 hepatoma cells, 72 hours, highest measured IC50 of single or multiple operations
From the text: as §1, §2, §3, §4, §5, §6, §7, §8

[1] = molecular target: T1, histone deacetylase 3 (HDAC3) (Homo sapiens, UniProt O15379); experiment: Detection of enzyme viability of histone deacetylase 3 (fluorogenic substrate deacetylation); format: biochemical; conditions: 0.16 ng/μL HDAC 3, 10 μM substrate
T1 construct: purchased BPS Bioscience 50003
T1 sequence (O15379 whole entry): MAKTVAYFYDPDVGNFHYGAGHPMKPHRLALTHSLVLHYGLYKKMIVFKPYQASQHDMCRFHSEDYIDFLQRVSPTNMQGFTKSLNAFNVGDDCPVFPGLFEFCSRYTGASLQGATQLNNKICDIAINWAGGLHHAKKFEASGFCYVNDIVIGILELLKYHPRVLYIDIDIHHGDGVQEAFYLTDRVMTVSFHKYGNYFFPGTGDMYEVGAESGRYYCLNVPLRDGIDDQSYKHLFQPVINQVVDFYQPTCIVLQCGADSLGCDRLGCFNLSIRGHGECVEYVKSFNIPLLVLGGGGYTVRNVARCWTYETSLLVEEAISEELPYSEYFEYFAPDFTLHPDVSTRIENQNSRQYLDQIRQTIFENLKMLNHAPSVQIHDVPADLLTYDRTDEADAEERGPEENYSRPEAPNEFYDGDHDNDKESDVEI
T1 sequence (Q9Y618 395-489 partner limits assumed): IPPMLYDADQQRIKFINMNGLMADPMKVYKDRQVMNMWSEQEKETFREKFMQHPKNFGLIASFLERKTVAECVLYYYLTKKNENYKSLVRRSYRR
From the text: (§9) HDAC inhibitory viabilities of the compounds in the present invention are detected in detection of substrate deacetylation.
B: Detection of enzyme viability of histone deacetylase 3 (#50003, BPS Bioscience):
Acetyl of HDAC 3 on a substrate is removed, so that the substrate is activated and can be affected by the developing solution, and fluorophore is released. The size of a fluorescence signal reflects the viability of the HDAC 3. An IC50 detection method of the enzyme is disclosed in Chuping Xu, Elisabetta Soraeni Improved Histone Deacetylase Inhibitors as Therapeutics for the Neurdegenerative DiseaseFriedreich's Ataxia: A New Synthetic Route. A total reaction system (100 μL/well) contains 0.16 ng/μL of HDAC 3, 10 μM of substrate and compounds of different concentrations. The fluorescence signal is detected at Ex/Em=360/460 on line, inhibitory effects of the compounds are determined from the obtained data and mapped with the compound concentrations to obtain a concentration response curve, and the IC50 value is fitted according to a four-parameter model.
(§10) The compounds 1-19 prepared in the embodiments are subjected to detection of enzyme viability of histone deacetylase 3 (i.e., HDAC3) according to the method above. Test results are shown in Table 2, wherein the measured IC50 values of the compounds are classified as specified, as shown in Table 2: […]

Hep3B cells = experiment: Determination of cell growth inhibition, CCK-8, Hep3B; format: cell-based; conditions: Homo sapiens, Hep3B hepatoma cells, 72 hours, highest measured IC50 of single or multiple operations
From the text: as §1, §2, §3, §4, §5, §6, §7, §8

[2] = molecular target: T2, histone deacetylase 6 (HDAC6) (Homo sapiens, UniProt Q9UBN7); experiment: Detection of enzyme viability of histone deacetylase 6 (fluorogenic substrate deacetylation); format: biochemical; conditions: 0.35 ng/μL HDAC 6, 20 μM substrate, 37° C.
T2 construct: purchased BPS Bioscience 50076
T2 sequence (Q9UBN7 1-1215): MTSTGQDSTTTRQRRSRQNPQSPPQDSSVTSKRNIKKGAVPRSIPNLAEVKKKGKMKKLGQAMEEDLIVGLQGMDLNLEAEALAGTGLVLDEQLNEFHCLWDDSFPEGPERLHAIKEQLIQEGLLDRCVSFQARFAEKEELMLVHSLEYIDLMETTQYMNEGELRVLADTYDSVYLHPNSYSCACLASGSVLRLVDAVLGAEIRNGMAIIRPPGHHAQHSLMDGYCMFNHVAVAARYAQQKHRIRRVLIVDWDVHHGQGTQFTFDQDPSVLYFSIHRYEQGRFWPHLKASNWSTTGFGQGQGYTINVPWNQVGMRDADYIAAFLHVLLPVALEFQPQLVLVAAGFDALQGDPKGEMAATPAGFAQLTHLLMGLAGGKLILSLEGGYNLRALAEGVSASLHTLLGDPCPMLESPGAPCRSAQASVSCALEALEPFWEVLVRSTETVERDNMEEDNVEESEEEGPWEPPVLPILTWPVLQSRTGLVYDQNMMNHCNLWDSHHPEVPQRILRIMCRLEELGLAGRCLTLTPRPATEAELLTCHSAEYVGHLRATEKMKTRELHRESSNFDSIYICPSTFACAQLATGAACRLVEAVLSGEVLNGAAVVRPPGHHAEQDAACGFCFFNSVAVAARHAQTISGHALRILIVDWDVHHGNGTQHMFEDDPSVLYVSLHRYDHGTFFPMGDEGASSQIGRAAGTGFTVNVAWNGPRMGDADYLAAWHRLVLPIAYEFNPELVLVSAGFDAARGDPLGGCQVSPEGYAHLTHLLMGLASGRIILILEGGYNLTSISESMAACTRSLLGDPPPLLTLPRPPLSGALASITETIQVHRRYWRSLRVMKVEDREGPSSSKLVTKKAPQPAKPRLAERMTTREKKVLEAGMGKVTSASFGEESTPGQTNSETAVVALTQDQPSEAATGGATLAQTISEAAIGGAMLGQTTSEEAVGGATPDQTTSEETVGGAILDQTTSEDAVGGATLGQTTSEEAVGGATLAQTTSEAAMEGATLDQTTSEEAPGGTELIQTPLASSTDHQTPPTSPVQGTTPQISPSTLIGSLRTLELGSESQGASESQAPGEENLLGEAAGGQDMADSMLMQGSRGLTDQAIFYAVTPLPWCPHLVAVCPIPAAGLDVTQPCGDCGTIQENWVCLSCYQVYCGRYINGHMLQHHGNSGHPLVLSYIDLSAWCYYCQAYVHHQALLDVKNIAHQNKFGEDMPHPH
From the text: as §9
A: Detection of enzyme viability of histone deacetylase 6 (#50076, BPS Bioscience):
Acetyl of HDAC 6 on a substrate is removed, so that the substrate is activated and can be affected by a subsequently added developing solution, and fluorophore is released. The size of a fluorescence signal reflects the viability of the HDAC 6. An IC50 detection method of the enzyme is disclosed in Chuping Xu, Elisabetta Soragni improved Histone Deacetylase Inhibitors as Therapeutics for the Neurdegenerative DiseaseEriedreich's Ataxia: A New Synthetic Route. A total reaction system (100 μL/well) contains 0.35 ng/μL of HDAC 6, 20 μM of substrate and compounds of different concentrations. The fluorescence signal is measured within 30 minutes after incubation at a temperature of 37° C., inhibitory effects of the compounds are determined from the obtained data and mapped with the compound concentrations to obtain a concentration response curve, and the IC50 value is fitted according to a four-parameter model.
as §10, with “6” for “3”, “HDAC6)” for “HDAC3)”

SMILES	IC50 (Huh7 cells)	IC50 (HepG2 cells)	IC50 (Hep3B cells)	IC50 (Li7 cells)	IC50 [1]	IC50 [2]
O=C(NO)C1=CCN(S(=O)(=O)c2ccccc2)C1 [Compound 2, N-hydroxy-1-(benzene-sulfonyl)-2,5-dihydro-1H-pyrrole-3-formamide]	> 10 µM	> 10 µM	> 10 µM	> 10 µM	> 1 µM	< 0.1 µM
O=C(NO)C1=CCN(S(=O)(=O)c2ccc(Oc3ccccc3)cc2)C1 [Compound 3]	> 10 µM	> 10 µM	> 10 µM	> 10 µM	0.1 to 1 µM	0.1 to 0.3 µM
CC(=O)Nc1ccc(S(=O)(=O)N2CC=C(C(=O)NO)C2)cc1Cl [Compound 4, N-hydroxy-1-((4-acetamido-3-chlorphenyl)sulfonyl)2,5-dihydro-1H-pyrro1e-3-formamide]	> 10 µM	> 10 µM	> 10 µM	> 10 µM	0.1 to 1 µM	< 0.1 µM

More lines, main results first:

IC50 (Huh7 cells)	IC50 (HepG2 cells)	IC50 (Hep3B cells)	SMILES	IC50 (Li7 cells)	IC50 [1]	IC50 [2]
> 10 µM	> 10 µM	> 10 µM	O=C(NO)C1=CCN(S(=O)(=O)c2ccc3c(c2)OCCO3)C1 [Compound 5, N-hydroxy-1-((2,3-dihydro-benzo[b] [1,4]dioxin)-6-sulfonyl)2,5-dihydro-1H-pyrrole-3-formamide]	> 10 µM	> 1 µM	< 0.1 µM
> 10 µM	> 10 µM	> 10 µM	O=C(NO)C1=CCN(S(=O)(=O)c2ccc3c(c2)OCC3)C1 [Compound 6, N-hydroxy-1-((2,3-dihydro-benzofuran)-6-sulfonyl)2,5-dihydro-1H-pyrrole-3-formamide]	> 10 µM	0.1 to 1 µM	< 0.1 µM
> 10 µM	> 10 µM	> 10 µM	CC(C)(C)c1ccc(S(=O)(=O)N2CC=C(C(=O)NO)C2)cc1 [Compound 8]	> 10 µM	0.1 to 1 µM	< 0.1 µM
